According to patent US10788496B2, “MEK1 mutation conferring resistance to RAF and MEK inhibitors” (Dana-Farber Cancer Institute, Inc., priority 2010, dated 2020):

Assays:
[1] = system: A375 cells expressing the MEK1 C121S mutation; assay: Growth inhibition of A375 melanoma cells transfected with MEK1 C121S mutant; type: cell-based; conditions: for resistance of cells to the inhibitor (in words): A375 cells expressing MEK1 C121S, growth inhibition; for fold greater GI-50 value of MEK1 C121S cells: versus wild-type A375 cells or A375 cells expressing MEK-WT (for AZD6244 also MEK-DD)
Text: FIGS. 1A and 1B are graphs showing the percent growth inhibition of A375 melanoma cells treated with increasing concentrations (in μM) of either the BRAF inhibitor PLX4720 (FIG. 1A) or the MEK1 inhibitor AZD6244 (FIG. 1B), wherein the A375 cells were either untransfected (A375), transfected with wild-type MEK1 (MEK-WT), transfected with the MEK1 C121S mutant (MEK-C121S) or transfected with a constitutively active MEK variant (MEK-DD).
It has previously been shown that mutations proximal to the C-helix of MEK1 can confer resistance to BRAF inhibition by PLX4032 by upregulating intrinsic MEK1 kinase activity (Emery, C. M. et al., (2009) Proc. Natl. Acad. Sci. USA 106:20411-20416). Therefore, it seemed plausible that the MEK1 C121 mutation, which is also located proximal to the C-helix, might have caused resistance to PLX4032 in the patient's recurrent tumor. To test this, the C121S was introduced mutation into the sequence of wild-type MEK1 and the mutant cDNA was expressed in the A375 melanoma cell line, which harbors a BRAF V600E mutation. To introduce the […] mutation into the wild-type MEK1 sequence, MEK1 site-directed mutagenesis was performed as previously described (Emery, C. M. et al., (2009) Proc. Natl. Acad. Sci. USA […]). Briefly, MEK1 cDNA was amplified by PCR and site-directed mutagenesis was conducted using Quick-Change II (Stratagene) as per the manufacturer's instructions. As controls, the wild-type MEK1 sequence or a constitutively active variant of MEK1, referred to as MEK1-DD, was expressed in the A375 melanoma cells.
To examine the effect of the MEK1 C121S mutation on responsiveness of the A375 melanoma cells to inhibitors, A375 cells (either untransfected cells, or cells transfected with either the wild-type MEK1, the C121S mutant MEK1, or the constitutively active variant MEK1-DD) were treated with increasing amounts of either the BRAF inhibitor PLX4720 (purchased from Symansis, Inc.), which is a compound closely related to PLX4032, or the MEK1 inhibitor AZD6244 (purchased from Selleck Chemical Co., Ltd.). The results are shown in the graphs of FIGS. 1A (PLX4720 treatment) and 1B (AZD6244 treatment).

[2] = system: MEK; conditions: cited from earlier work
[3] = system: human colon cancer xenograft; conditions: cited from earlier work
[4] = system: metastatic melanoma with BRAF V600E mutation; assay: Case of a patient with BRAF V600E metastatic melanoma treated with PLX4032 in a clinical trial; type: in vivo, human; conditions: single patient
Procedure: The patient was a person who was diagnosed with metastatic melanoma in February 2009. […] They were treated with several therapeutic regimens with minimal clinical response. By October 2009, the patient had developed numerous subcutaneous metastatic deposits.
In late February 2010, after 4 months of therapy with PLX4032, the patient rapidly developed new subcutaneous nodules all over their body and PLX4032 was stopped. At this point, they provided written informed consent and a percutaneous core biopsy of a recurrent subcutaneous nodule on the chest was obtained. In order to determine possible mechanisms of resistance to PLX4032 in this tumor, the exons from 138 cancer genes from this sample were sequenced using massively parallel sequencing. The patient continued to have rapid progression of their disease and died on hospice in March 2010.

[5] = system: melanoma with BRAF V600E mutations; conditions: cited from earlier work

Structure (SMILES): Cn1cnc2c(F)c(Nc3ccc(Br)cc3Cl)c(C(=O)NOCCO)cc21 [AZD6244]
- resistance of cells to the inhibitor (in words) [1]: strongly resistant
- fold greater GI-50 value of MEK1 C121S cells [1]: ~1000 fold

Structure (SMILES): O=C(NOCC1CC1)c1ccc(F)c(F)c1Nc1ccc(I)cc1Cl [CI-1040]
- MEK inhibition in cell-based assays (in words) [2]: inhibited MEK
- effect on xenograft growth (in words) [3]: reduced human colon cancer xenograft growth

Structure (SMILES): CCCS(=O)(=O)Nc1ccc(F)c(C(=O)c2c[nH]c3ncc(-c4ccc(Cl)cc4)cc23)c1F [PLX4032]
- duration of therapy until new subcutaneous nodules developed (relapse) [4]: 4 months
- tumor response (in words) ([4]; after 15 weeks of therapy): near complete regression of all visible tumor nodules
- time to visible partial response ([4]; from starting PLX4032): ≤ 2 weeks
- patients with at least 30% tumor response by RECIST criteria ([5]; Phase I, 19 of 27 patients, oral): 70%
- average time to relapse (resistance) ([5]; patients treated with PLX4032): 9 months

Structure (SMILES): CCCS(=O)(=O)Nc1ccc(F)c(C(=O)c2c[nH]c3ncc(Cl)cc23)c1F [PLX4720]
- resistance of cells to the inhibitor (in words) [1]: strongly resistant
- fold greater GI-50 value of MEK1 C121S cells [1]: 100 fold
